For 30 molecules, IC50 results are on record in patent US12435060B2, “Acylamino bridged heterocyclic compound, and composition and application thereof” (BEIJING SCITECH-MQ PHARMACEUTICALS LIMITED, priority 2019, dated 2025).

Structures are written as SMILES.

By IC50 is commonly meant the concentration that inhibits the measured activity by half.

This assay deals with HT29 cells. The assay can be described thus: Inhibition of cell necrosis (CCK8 method), induced programmed necrosis of HT29 cells. It is filed as cell-based. Particulars: Homo sapiens, HT-29; rescue from necrosis induced by TNF-α 20 ng/mL, AT-406 1 μM, Z-VAD-FMK 20 μM; 16-20 hours; CCK-8, OD 450 nm. The essentials: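 HT29 cells in McCOY's 5A with 10% FBS were pre-treated for 30 min with compound (9 fourfold steps, 25000 to 0.38 nM final, 0.25% DMSO). Necrosis was then induced with TNF-α 20 ng/mL, AT-406 1 μM and Z-VAD-FMK 20 μM for 16-20 h. Viability was read by CCK-8 OD450, normalized between uninduced and induced wells, and IC50 was curve-fitted.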
A general note: Tetrazolium dyes change colour on reduction, which living cells bring about.
As to `Cc1ccc(OCCN2CCCCC2)cc1-c1ccnc(NC(=O)c2nnc(Cc3ccc(F)cc3F)[nH]2)c1` [Example 230, 5-(2,4-difluorobenzyl)-N-(4-(2-methyl-5-(2-(piperidin-1-yl)ethoxy)phenyl)pyridin-2-yl)-4H-1,2,4-triazole-3-carboxamide], the concentration for half-maximal inhibition (IC50) was 100 to 1000 nM.
Next, `O=C(Nc1cc(-c2cc(OCC3CCOCC3)ccc2F)c(F)cn1)c1nnc(CC2CCCCC2)[nH]1` [Example 328, 5-(cyclohexylmethyl)-N-(5-fluoro-4-(2-fluoro-5-((tetrahydro-2H-pyran-4-yl)methoxy)phenyl)pyridin-2-yl)-4H-1,2,4-triazole-3-carboxamide]: at most 100 nM; `O=C(Nc1cc(-c2cc(OCC3CCOCC3)ccc2Cl)ccn1)c1nnc(CC2CCCC2)[nH]1` [Example 401, N-(4-(2-chloro-5-((tetrahydro-2H-pyran-4-yl)methoxy)phenyl)pyridin-2-yl)-5-(cyclopentylmethyl)-4H-1,2,4-triazole-3-carboxamide]: at most 100 nM.
The same measure for `O=C(Nc1cc(-c2cc(OCCCCO)ccc2C(F)(F)F)ccn1)c1nnc(Cc2ccccc2F)[nH]1` [Example 273, 5-(2-fluorobenzyl)-N-(4-(5-(4-hydroxybutoxy)-2-(trifluoromethyl)phenyl)pyridin-2-yl)-4H-1,2,4-triazole-3-carboxamide]: at most 100 nM; for `COc1ccc(C)c(-c2cncc(NC(=O)c3nnc(Cc4ccccc4)[nH]3)c2)c1` [Example 196, 5-benzyl-N-(5-(5-methoxy-2-methylphenyl)pyridin-3-yl)-4H-1,2,4-triazole-3-carboxamide]: over 10000 nM.
The same measure for `CC(C)OCCOc1ccc(Cl)c(-c2ccnc(NC(=O)c3nnc(Cc4ccccc4F)[nH]3)c2)c1` [Example 388, 5-(2-fluorobenzyl)-N-(4-(2-chloro-5-(2-isopropoxyethoxy)phenyl)pyridin-2-yl)-4H-1,2,4-triazole-3-carboxamide]: at most 100 nM.
As for `CC(C)OCCOc1ccc(Cl)c(-c2ccnc(NC(=O)c3nnc(CC4CCCCC4)[nH]3)c2)c1` [Example 390, N-(4-(2-chloro-5-(2-isopropoxyethoxy)phenyl)pyridin-2-yl)-5-(cyclohexylmethyl)-4H-1,2,4-triazole-3-carboxamide], the 50% inhibitory concentration (IC50) was at most 100 nM.
For the molecule `Cc1ccc(OCCCC(C)(C)O)cc1-c1ccnc(NC(=O)c2nnc(Cc3cccc(F)c3)[nH]2)c1` [Example 184, 5-(3-fluorobenzyl)-N-(4-(5-((4-hydroxy-4-methylpentyl)oxy)-2-methylphenyl)pyridin-2-yl)-4H-1,2,4-triazole-3-carboxamide], the half-maximal inhibitory concentration (IC50) was at most 100 nM.
Next, `CC(C)(C)OCCOc1ccc(C(F)(F)F)c(-c2ccnc(NC(=O)c3nnc(Cc4ccccc4)[nH]3)c2)c1` [Example 291, 5-benzyl-N-(4-(5-(2-(tert-butoxy)ethoxy)-2-(trifluoromethyl)phenyl)pyridin-2-yl)-4H-1,2,4-triazole-3-carboxamide]: at most 100 nM; `CC(C)(O)CCCOc1ccc(Cl)c(-c2ccnc(NC(=O)c3nnc(Cc4ccc(F)c(F)c4)[nH]3)c2)c1` [Example 339, N-(4-(2-chloro-5-((4-hydroxy-4-methylpentyl)oxy)phenyl)pyridin-2-yl)-5-(3,4-difluorobenzyl)-4H-1,2,4-triazole-3-carboxamide]: 100 to 1000 nM.
The same measure for `Cc1ccc(S(=O)(=O)CCCC(C)(C)O)cc1-c1ccnc(NC(=O)c2nnc(CC3CCCC3)[nH]2)c1` [Example 475, 5-(cyclopentylmethyl)-N-(4-(5-((4-hydroxy-4-methylpentyl)sulfonyl)-2-methylphenyl)pyridin-2-yl)-4H-1,2,4-triazole-3-carboxamide]: at most 100 nM.
The same measure for `COc1cc(Cc2nnc(C(=O)Nc3cc(-c4cc(OCCCC(C)(C)O)ccc4C)ccn3)[nH]2)ccc1F` [Example 209, 5-(4-fluoro-3-methoxybenzyl)-N-(4-(5-((4-hydroxy-4-methylpentyl)oxy)-2-methylphenyl)pyridin-2-yl)-4H-1,2,4-triazole-3-carboxamide]: 100 to 1000 nM.
The molecule `O=C(Nc1cc(-c2cc(OCCC3CCOCC3)ccc2Cl)ncn1)c1nnc(CC2CCCC2)[nH]1` [Example 472, N-(6-(2-chloro-5-(2-(tetrahydro-2H-pyran-4-yl)ethoxy)phenyl)pyrimidin-4-yl)-5-(cyclopentylmethyl)-4H-1,2,4-triazole-3-carboxamide] came in with a 50% inhibitory concentration (IC50) of at most 100 nM.
`O=C(Nc1cc(-c2cc(OCC3CCOCC3)ccc2C(F)(F)F)ccn1)c1nnc(Cc2ccc(F)cc2)[nH]1` [Example 302, 5-(4-fluorobenzyl)-N-(4-(5-((tetrahydro-2H-pyran-4-yl)methoxy)-2-(trifluoromethyl)phenyl)pyridin-2-yl)-4H-1,2,4-triazole-3-carboxamide] returned an IC50 of at most 100 nM.
Next, `Cc1ccc(OCCCCC(C)(C)O)cc1-c1cc(NC(=O)c2nnc(Cc3ccccc3F)[nH]2)ncc1Cl` [Example 247, N-(5-chloro-4-(5-((5-hydroxyl-5-methylhexyl)oxy)-2-methylphenyl)pyridin-2-yl)-5-(2-fluorobenzyl)-4H-1,2,4-triazole-3-carboxamide]: 100 to 1000 nM; `COC(=O)C=Cc1ccc(C)c(-c2ccnc(NC(=O)c3nnc(Cc4ccccc4)[nH]3)c2)c1` [Example 480, Methyl 3-(3-(2-(5-benzyl-4H-1,2,4-triazol-3-carboxamido)pyridin-4-yl)-4-methylphenyl)acrylate]: at most 100 nM.
For the molecule `CCOCCOc1ccc(Cl)c(-c2ccnc(NC(=O)c3nnc(Cc4ccccc4)[nH]3)c2)c1` [Example 383, 5-benzyl-N-(4-(2-chloro-5-(2-ethoxyethoxy)phenyl)pyridin-2-yl)-4H-1,2,4-triazole-3-carboxamide], the concentration for half-maximal inhibition (IC50) was at most 100 nM.
In turn, `Cc1ccc(OCCCC(C)(C)O)cc1-c1cc(NC(=O)c2nnc(CC3CCCC3)[nH]2)ncn1` [Example 439, 5-(cyclopentylmethyl)-N-(6-(5-((4-hydroxy-4-methylpentyl)oxy)-2-methylphenyl)pyrimidin-4-yl)-4H-1,2,4-triazole-3-carboxamide] showed a half-maximal inhibitory concentration (IC50) of at most 100 nM.
The same measure for `CC(C)(O)CCCOc1ccc(Cl)c(-c2ccnc(NC(=O)c3nnc(Cc4ccc(F)c(C(F)(F)F)c4)[nH]3)c2)c1` [Example 349, N-(4-(2-chloro-5-((4-hydroxy-4-methylpentyl)oxy)phenyl)pyridin-2-yl)-5-(4-fluoro-3-(trifluoromethyl)benzyl)-4H-1,2,4-triazole-3-carboxamide]: over 10000 nM; for `O=C(Nc1cc(-c2cc(OCCCCO)ccc2Cl)ccn1)c1nnc(CC2CCCC2)[nH]1` [Example 373, N-(4-(2-chloro-5-(4-hydroxybutoxy)phenyl)pyridin-2-yl)-5-(cyclopentylmethyl)-4H-1,2,4-triazole-3-carboxamide]: at most 100 nM; for `COCCCOc1ccc(Cl)c(-c2ccnc(NC(=O)c3nnc(CC4CCCCC4)[nH]3)c2)c1` [Example 398, N-(4-(2-chloro-5-(3-methoxypropoxy)phenyl)pyridin-2-yl)-5-(cyclohexylmethyl)-4H-1,2,4-triazole-3-carboxamide]: at most 100 nM.
Next, `Cc1cnccc1-c1ccnc(NC(=O)c2nnc(Cc3ccccc3)[nH]2)c1` [Example 24, 5-benzyl-N-(3′-methyl-[4,4′-bipyridin]-2-yl)-4H-1,2,4-triazole-3-carboxamide]: 100 to 1000 nM; `CCc1ccc(OC)c(-c2ccnc(NC(=O)c3nnc(Cc4ccccc4)[nH]3)c2)c1` [Example 104, 5-benzyl-N-(4-(5-ethyl-2-methoxyphenyl)pyridin-2-yl)-4H-1,2,4-triazole-3-carboxamide]: 1000 to 10000 nM; `COCCN(C)c1ccc(C)c(-c2ccnc(NC(=O)c3nnc(Cc4ccccc4)[nH]3)c2)c1` [Example 55, 5-benzyl-N-(4-(5-((2-methoxyethyl)(methyl)amino)-2-methylphenyl)pyridin-2-yl)-4H-1,2,4-triazole-3-carboxamide]: 100 to 1000 nM.
The same measure for `Cc1ccc(OCCC2CCCCO2)cc1-c1ccnc(NC(=O)c2nnc(Cc3ccccc3)[nH]2)c1` (stereo not drawn) [Example 227, 5-benzyl-N-(4-(2-methyl-5-(2-(tetrahydro-2H-pyran-2-yl)ethoxy)phenyl)pyridin-2-yl)-4H-1,2,4-triazole-3-carboxamide]: at most 100 nM; for `Cc1ccc(OC(C)C)cc1-c1ccnc(NC(=O)c2nnc(Cc3ccccc3)[nH]2)c1` [Example 114, 5-benzyl-N-(4-(5-isopropoxy-2-methylphenyl)pyridin-2-yl)-4H-1,2,4-triazole-3-carboxamide]: 100 to 1000 nM; for `COCCCOc1ccc(C(F)(F)F)c(-c2ccnc(NC(=O)c3nnc(Cc4ccccc4F)[nH]3)c2)c1` [Example 296, 5-(2-fluorobenzyl)-N-(4-(5-(3-methoxypropoxy)-2-(trifluoromethyl)phenyl)pyridin-2-yl)-4H-1,2,4-triazole-3-carboxamide]: at most 100 nM.
`Cc1cc(Cl)ccc1-c1ccnc(NC(=O)c2nnc(Cc3ccccc3)[nH]2)c1` [Example 11, 5-benzyl-N-(4-(4-chloro-2-methylphenyl)pyridin-2-yl)-4H-1,2,4-triazole-3-carboxamide] had a concentration for half-maximal inhibition (IC50) of 1000 to 10000 nM.
As to `COc1ccc(C2CC2)cc1-c1ccnc(NC(=O)c2nnc(Cc3ccccc3)[nH]2)c1` [Example 46, 5-benzyl-N-(4-(5-cyclopropyl-2-methoxyphenyl)pyridin-2-yl)-4H-1,2,4-triazole-3-carboxamide], the concentration for half-maximal inhibition (IC50) was in the range of 1000 to 10000 nM.
The same measure for `Cc1ccc(OCCCO)cc1-c1ccnc(NC(=O)c2nnc(Cc3ccccc3)[nH]2)c1` [Example 140, 5-benzyl-N-(4-(5-(3-hydroxylpropoxy)-2-methylphenyl)pyridin-2-yl)-4H-1,2,4-triazole-3-carboxamide]: at most 100 nM.
